Data as given in patent US20260364184A1, “COMPOUND BASED ON OXOISOINDOLINYL-SUBSTITUTED TETRAHYDROPYRIMIDINE-DIONE AND USE THEREOF” (GLUETACS THERAPEUTICS (SHANGHAI) CO., LTD., priority 2023, published 2026).

Legend:
Type in all cases: cell-based
[1] = system: Human neuroblastoma cell line (SK-N-AS); experiment: Inhibition of SK-N-AS cell proliferation (CellTiter luminescent viability); conditions: Table II2, EZH2 inhibitor-based, 96 hours; for inhibition at 0.01 µM: 10 nM, read-out: Inhibition Rate at 10 nM (%); for inhibition at 0.5 µM: 500 nM, read-out: Inhibition Rate at 500 nM (%)
[2] = molecular target: T1, EZH2 (Homo sapiens, UniProt Q15910+Q96SW2); experiment: Western blot degradation of EZH2; conditions: hPBMC Cell; 24 hours
T1 construct: expression of target proteins in cells; endogenous in cells
T1 sequence (Q15910 whole entry): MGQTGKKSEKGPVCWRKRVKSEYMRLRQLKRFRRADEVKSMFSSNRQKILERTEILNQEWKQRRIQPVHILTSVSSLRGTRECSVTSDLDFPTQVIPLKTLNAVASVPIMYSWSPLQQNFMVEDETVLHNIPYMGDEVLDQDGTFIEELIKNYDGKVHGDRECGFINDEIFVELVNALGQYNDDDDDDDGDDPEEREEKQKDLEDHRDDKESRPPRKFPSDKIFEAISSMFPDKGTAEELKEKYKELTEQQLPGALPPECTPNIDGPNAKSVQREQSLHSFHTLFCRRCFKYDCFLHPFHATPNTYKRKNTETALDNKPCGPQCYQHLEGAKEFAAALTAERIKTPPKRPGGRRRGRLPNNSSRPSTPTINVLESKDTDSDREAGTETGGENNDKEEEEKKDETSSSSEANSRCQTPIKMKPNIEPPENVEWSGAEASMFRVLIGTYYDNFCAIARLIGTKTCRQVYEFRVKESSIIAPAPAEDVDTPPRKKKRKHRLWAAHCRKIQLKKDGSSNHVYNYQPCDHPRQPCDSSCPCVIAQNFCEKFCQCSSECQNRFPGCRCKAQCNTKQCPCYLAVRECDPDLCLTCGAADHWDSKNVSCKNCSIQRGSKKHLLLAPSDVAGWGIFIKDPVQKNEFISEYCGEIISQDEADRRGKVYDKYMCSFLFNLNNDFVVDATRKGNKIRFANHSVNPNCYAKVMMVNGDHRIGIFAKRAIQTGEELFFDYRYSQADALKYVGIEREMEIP
T1 sequence (O75530 whole entry partner): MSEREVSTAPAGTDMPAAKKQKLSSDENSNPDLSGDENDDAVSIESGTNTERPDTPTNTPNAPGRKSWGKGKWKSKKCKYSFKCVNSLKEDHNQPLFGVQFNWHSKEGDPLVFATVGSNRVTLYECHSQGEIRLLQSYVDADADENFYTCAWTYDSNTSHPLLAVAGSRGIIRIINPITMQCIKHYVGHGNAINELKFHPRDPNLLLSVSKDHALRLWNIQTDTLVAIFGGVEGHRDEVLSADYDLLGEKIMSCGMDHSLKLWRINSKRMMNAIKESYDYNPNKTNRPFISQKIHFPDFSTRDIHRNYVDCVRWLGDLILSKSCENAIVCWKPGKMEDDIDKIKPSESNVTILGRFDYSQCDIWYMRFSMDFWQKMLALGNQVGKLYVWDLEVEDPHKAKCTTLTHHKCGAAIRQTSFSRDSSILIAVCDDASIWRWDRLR
T1 sequence (Q15022 whole entry partner): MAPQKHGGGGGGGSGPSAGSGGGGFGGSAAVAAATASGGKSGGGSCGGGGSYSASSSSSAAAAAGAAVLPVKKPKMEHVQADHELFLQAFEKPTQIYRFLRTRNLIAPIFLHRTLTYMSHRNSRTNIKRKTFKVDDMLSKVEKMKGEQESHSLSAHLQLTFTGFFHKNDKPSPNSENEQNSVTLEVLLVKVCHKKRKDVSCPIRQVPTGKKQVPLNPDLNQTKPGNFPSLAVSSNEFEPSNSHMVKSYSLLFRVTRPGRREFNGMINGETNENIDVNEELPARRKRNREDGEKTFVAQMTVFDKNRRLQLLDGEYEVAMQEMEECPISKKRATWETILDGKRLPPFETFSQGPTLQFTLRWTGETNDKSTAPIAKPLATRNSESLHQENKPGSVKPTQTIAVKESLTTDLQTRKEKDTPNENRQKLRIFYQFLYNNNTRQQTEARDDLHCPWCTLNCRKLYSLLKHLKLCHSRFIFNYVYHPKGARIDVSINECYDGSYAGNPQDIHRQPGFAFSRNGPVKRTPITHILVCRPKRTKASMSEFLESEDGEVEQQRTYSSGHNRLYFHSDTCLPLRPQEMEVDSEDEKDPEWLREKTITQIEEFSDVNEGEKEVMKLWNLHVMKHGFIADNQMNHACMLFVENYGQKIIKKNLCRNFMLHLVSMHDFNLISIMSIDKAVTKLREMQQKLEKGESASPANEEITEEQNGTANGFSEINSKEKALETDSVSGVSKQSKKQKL
T1 sequence (Q96SW2 whole entry): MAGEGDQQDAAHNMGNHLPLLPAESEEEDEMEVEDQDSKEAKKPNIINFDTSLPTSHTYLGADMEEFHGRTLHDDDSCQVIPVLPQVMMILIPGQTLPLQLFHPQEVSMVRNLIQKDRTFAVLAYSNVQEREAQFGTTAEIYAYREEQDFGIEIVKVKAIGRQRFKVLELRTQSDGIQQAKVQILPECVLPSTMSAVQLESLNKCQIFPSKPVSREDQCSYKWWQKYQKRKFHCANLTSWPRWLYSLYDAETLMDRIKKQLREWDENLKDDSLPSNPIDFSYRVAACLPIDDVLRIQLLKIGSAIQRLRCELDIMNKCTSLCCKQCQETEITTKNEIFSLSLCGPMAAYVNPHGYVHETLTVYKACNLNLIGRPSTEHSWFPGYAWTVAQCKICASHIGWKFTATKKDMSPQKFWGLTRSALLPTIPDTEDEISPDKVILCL
T1 sequence (Q16531 whole entry partner): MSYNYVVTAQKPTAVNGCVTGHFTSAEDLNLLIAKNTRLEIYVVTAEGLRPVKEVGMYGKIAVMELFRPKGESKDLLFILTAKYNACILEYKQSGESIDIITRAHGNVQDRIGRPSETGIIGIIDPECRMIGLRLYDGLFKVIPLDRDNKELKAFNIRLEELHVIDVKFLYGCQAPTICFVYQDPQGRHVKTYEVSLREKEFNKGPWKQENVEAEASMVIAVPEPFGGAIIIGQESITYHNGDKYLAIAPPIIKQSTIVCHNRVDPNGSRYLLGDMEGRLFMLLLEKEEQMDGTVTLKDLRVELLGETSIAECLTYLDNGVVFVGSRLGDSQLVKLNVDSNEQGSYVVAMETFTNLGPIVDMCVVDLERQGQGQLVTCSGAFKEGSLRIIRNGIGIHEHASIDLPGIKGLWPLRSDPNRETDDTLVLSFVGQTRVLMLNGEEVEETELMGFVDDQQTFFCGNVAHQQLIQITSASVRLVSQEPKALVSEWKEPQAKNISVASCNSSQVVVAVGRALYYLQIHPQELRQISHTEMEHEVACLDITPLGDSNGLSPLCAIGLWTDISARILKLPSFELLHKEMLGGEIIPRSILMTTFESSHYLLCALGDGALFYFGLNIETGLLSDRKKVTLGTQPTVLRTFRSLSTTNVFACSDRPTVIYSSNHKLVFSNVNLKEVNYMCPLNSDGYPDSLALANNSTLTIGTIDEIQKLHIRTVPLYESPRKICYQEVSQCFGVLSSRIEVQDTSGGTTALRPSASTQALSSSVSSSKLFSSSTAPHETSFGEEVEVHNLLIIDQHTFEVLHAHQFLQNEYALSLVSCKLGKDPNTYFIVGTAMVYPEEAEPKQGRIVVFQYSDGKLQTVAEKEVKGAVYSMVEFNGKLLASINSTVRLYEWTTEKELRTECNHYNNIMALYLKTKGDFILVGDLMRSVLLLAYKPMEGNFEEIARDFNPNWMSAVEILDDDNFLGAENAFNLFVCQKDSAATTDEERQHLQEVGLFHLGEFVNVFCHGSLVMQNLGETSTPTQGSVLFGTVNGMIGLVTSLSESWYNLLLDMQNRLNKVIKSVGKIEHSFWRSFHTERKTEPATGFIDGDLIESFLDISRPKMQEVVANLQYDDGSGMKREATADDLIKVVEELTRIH
Procedure: (§1) Conventional Western blot assay was performed to evaluate the effects of the compounds of the present disclosure on the expression of target proteins in cells.
(§2) (1) Cell Seeding and Protein Harvesting: The selected cells were processed according to the cell seeding procedure and protein harvesting procedure in Table II-2.
(§3) (2) To the collected supernatant, 5×SDS sample loading buffer was added, followed by denaturation at 95 °C for 5 minutes. The denatured samples were then separated by SDS-PAGE electrophoresis on a polyacrylamide gel. Proteins were transferred to a nitrocellulose membrane (0.45 μm NC membrane), blocked with blocking buffer at room temperature for 1 hour, and subjected to antibody incubation and development procedures according to the antibody manufacturer's instructions (Cell Signaling Technology).
(§4) Half-Maximal Degradation Concentration value (the drug concentration required for degrading proteins by 50%, abbreviated as DC50) reads method: comparing the grayscale values of Western blot bands from drug-treated samples with those from blank DMSO-treated controls, and identifying the drug concentration range at which the grayscale value is half that of the DMSO-treated control bands.
(§5) DC50 values can be calculated using ImageJ software to measure grayscale values of Western blot bands from drug-treated samples. The concentration-response curve is fitted to estimate the drug concentration corresponding to half the grayscale value.
(§6) Target protein remaining (%) refers to the percentage of target protein remaining in cells after treatment with protein degrader compounds.
(§7) Calculation method for target protein remaining (%): Use ImageJ software to measure grayscale values of Western blot bands from drug (protein degrader)-treated samples. The grayscale value of drug-treated bands is divided by that of internal control protein bands, and the resulting quotient is normalized to obtain the relative percentage of remaining target protein after protein degrader treatment.
(§8) Target protein degradation rate (%)=1−target protein remaining (%).

[3] = system: Human Multiple myeloma cell line (MM.1S); experiment: Inhibition of MM.1S cell proliferation (CellTiter luminescent viability); conditions: Homo sapiens, MM1.S, Table IG1, FAK inhibitor-based, 96 hours; for inhibition at 0.01 µM: 10 nM, read-out: Inhibition Rate at 10 nM (%); for inhibition at 0.5 µM: 500 nM, read-out: Inhibition Rate at 500 nM (%)
Procedure, shortened: (§9)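 Cells are seeded in 96-well plates, cultured at 37 °C, 5% CO2, and treated next day with 5-fold serial compound dilutions (stock series from 2000 μM; 0.5 μL into 100 μL medium). Viability is read by CellTiter-Meiluncell luminescence after the set exposure, and IC50 is taken from growth-inhibition curves.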

[4] = system: Human breast cancer cell line (MDA-MB-231); experiment: Inhibition of MDA-MB-231 cell proliferation (CellTiter luminescent viability); conditions: Table IG3, FAK inhibitor-based, 96 hours; for inhibition at 0.01 µM: MDA-MB-231, 10 nM, read-out: Inhibition Rate at 10 nM (%); for inhibition at 0.5 µM: MDA-MB-231, 500 nM, read-out: Inhibition Rate at 500 nM (%)
Procedure: The tumor cells used herein were cultured in a cell culture medium listed in table 3 at 37 °C in an incubator with 5% CO2. Prior to experimentation, all cell lines used were correctly identified by STR profiling, and tested negative for mycoplasma contamination using a mycoplasma detection kit through routine screenings.
The IC50 values of the compounds of the present disclosure (including the compounds in Table 1, Table 2, and Examples 1-468) were determined using the CellTiter-Meiluncell Luminescent Cell Viability Assay Kit from Dalian Meilun Biotech Co., Ltd. The detailed procedure is as follows: Tumor cells were seeded in 96-well cell culture plates at the densities specified in Table 4. On the following day, the test compounds of the present disclosure were subjected to serial dilution. The dilution can be performed according to one of the following two methods: • (1) The first dilution method: The test compounds of the present disclosure (including the compounds in Table 1, Table 2, and Examples 1-468) were subjected to 5-fold serial dilutions starting from a highest concentration of 2000 μM, resulting in a total of 9 concentrations from high to low (2000, 400, 80, 16, 3.2, 0.64, 0.128, 0.0256, 0.00512 μM). Subsequently, 0.5 μL of the test compound dilution was transferred into the 96-well plate containing the cells, with each well containing 100 μL of cell culture medium. […] Into the 96-well plate, the diluted test compounds and corresponding detection reagents were added, resulting in final test compound concentrations of 500 nM and 10 nM, respectively. The experimental procedure is described below using the diluted 2 μM test compound as an example.
0.5 μL of the aforementioned diluted compound of the present disclosure (including the compounds in Table 1, Table 2, and Examples 1-468) was added to the seeded cells in 100 μL of medium, yielding a final test compound concentration of 10 nM. After the cells were treated with the compounds of the present disclosure for a specified period, the cell viability assay reagent was added to the culture medium according to the kit's instructions to determine cell viability. […] All controls were treated using the same procedure as the compounds of the present disclosure. The growth inhibition curves for the compounds of the present disclosure were plotted using Prism GraphPad software, and the IC50 values were calculated therefrom.

[5] = molecular target: T2, FAK (Homo sapiens, UniProt Q05397); experiment: Western blot degradation of FAK; conditions: A549 Cell; 24 hours
T2 construct: expression of target proteins in cells; endogenous in cells
T2 sequence (Q05397 whole entry): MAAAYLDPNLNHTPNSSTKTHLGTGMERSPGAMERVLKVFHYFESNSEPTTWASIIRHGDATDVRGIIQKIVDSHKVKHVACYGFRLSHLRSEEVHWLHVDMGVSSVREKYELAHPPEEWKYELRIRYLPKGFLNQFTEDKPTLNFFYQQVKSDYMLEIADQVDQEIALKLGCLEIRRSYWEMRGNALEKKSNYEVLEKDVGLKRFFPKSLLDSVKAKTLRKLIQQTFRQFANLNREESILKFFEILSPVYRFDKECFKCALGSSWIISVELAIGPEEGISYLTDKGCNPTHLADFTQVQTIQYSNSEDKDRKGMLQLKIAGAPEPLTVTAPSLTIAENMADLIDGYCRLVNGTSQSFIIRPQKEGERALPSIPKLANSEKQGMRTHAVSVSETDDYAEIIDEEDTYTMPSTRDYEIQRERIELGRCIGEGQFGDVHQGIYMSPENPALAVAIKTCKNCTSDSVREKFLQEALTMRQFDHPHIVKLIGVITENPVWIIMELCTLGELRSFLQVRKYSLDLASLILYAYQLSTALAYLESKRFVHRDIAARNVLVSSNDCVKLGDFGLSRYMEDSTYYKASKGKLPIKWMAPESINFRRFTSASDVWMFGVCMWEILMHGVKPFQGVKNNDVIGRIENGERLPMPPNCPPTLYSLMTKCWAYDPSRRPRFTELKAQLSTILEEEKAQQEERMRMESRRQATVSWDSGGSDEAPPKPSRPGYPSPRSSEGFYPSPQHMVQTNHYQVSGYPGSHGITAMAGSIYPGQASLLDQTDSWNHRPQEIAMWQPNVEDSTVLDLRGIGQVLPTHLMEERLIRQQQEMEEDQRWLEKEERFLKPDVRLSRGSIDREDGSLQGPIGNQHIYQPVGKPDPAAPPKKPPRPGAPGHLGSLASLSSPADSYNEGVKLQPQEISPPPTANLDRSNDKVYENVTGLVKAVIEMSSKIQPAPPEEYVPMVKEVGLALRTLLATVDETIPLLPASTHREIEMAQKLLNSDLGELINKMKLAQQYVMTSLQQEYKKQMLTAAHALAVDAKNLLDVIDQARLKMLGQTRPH
Procedure: as §1, §2, §3, §4, §5, §6, §7, §8

[6] = system: Human myeloid monocytic leukemia cell line (MV-4-11); experiment: Inhibition of MV-4-11 cell proliferation (CellTiter luminescent viability); conditions: Homo sapiens, MV4-11, Table IG2, FAK inhibitor-based, 96 hours; for inhibition at 0.01 µM: MV-4-11, 10 nM, read-out: Inhibition Rate at 10 nM (%); for inhibition at 0.5 µM: MV-4-11, 500 nM, read-out: Inhibition Rate at 500 nM (%)
Procedure, shortened: as §9

| SMILES | Degradation of substrate protein EZH2 (substrate protein remaining %) [2] | Degradation of substrate protein FAK (substrate protein remaining %) [5] | inhibition at 0.01 µM [4] [%] | inhibition at 0.5 µM [4] [%] | inhibition at 0.01 µM [6] [%] | inhibition at 0.5 µM [6] [%] | other results |
| --- | --- | --- | --- | --- | --- | --- | --- |
| CCN(c1cc(-c2ccc(N3CCN(C4CCN(CC5CCN(c6ccc7c(c6)C(=O)N(N6CCC(=O)NC6=O)C7=O)CC5)CC4)CC3)cc2)cc(C(=O)NCc2c(C)cc(C)[nH]c2=O)c1C)C1CCOCC1 [GT-08524, N-((4,6-dimethyl-2-oxo-1,2-dihydropyridin-3-yl)methyl)-4′-(4-(1-((1-(2-(2,4-dioxotetrahydropyrimidin-1(2H)-yl)-1,3-dioxoisoindolin-5-yl)piperidin-4-yl)methyl)piperidin-4-yl)piperazin-1-yl)-5-(ethyl(tetrahydro-2H-pyran-4-yl)amino)-4-methyl-[1,1′-biphenyl]-3-carboxamide] | A (0%≤substrate protein remaining %≤80%) |  |  |  |  |  | inhibition at 0.01 µM [1]: 15 to 20%; inhibition at 0.5 µM [1]: 20 to 30% |
| CCCc1cc(C)[nH]c(=O)c1CNC(=O)c1cc(-c2ccc(N3CCN(C4CCN(Cc5ccc6c(c5)CN(N5CCC(=O)NC5=O)C6=O)CC4)CC3)nc2)cc2c1cnn2C(C)C [GT-08422, 6-(6-(4-(1-((2-(2,4-dioxotetrahydropyrimidin-1(2H)-yl)-1-oxoisoindolin-5-yl)methyl)piperidin-4-yl)piperazin-1-yl)pyridin-3-yl)-1-isopropyl-N-((6-methyl-2-oxo-4-propyl-1,2-dihydropyridin-3-yl)methyl)-1H-indazole-4-carboxamide] | A (0%≤substrate protein remaining %≤80%) |  |  |  |  |  | inhibition at 0.01 µM [1]: 5 to 10%; inhibition at 0.5 µM [1]: 20 to 30% |
| CCCc1cc(C)[nH]c(=O)c1CNC(=O)c1cc(-c2ccc(N3CCN(Cc4ccc5c(c4)CN(N4CCC(=O)NC4=O)C5=O)CC3)nc2)cc2c1cnn2C(C)C [GT-08418, 6-(6-(4-((2-(2,4-dioxotetrahydropyrimidin-1(2H)-yl)-1-oxoisoindolin-5-yl)methyl)piperazin-1-yl)pyridin-3-yl)-1-isopropyl-N-((6-methyl-2-oxo-4-propyl-1,2-dihydropyridin-3-yl)methyl)-1H-indazole-4-carboxamide] | A (0%≤substrate protein remaining %≤80%) |  |  |  |  |  |  |
| CCCc1cc(C)[nH]c(=O)c1CNC(=O)c1cc(-c2ccc(N3CCN(Cc4ccc5c(c4)C(=O)N(N4CCC(=O)NC4=O)C5=O)CC3)nc2)cc2c1cnn2C(C)C [GT-08419, 6-(6-(4-((2-(2,4-dioxotetrahydropyrimidin-1(2H)-yl)-1,3-dioxoisoindolin-5-yl)methyl)piperazin-1-yl)pyridin-3-yl)-1-isopropyl-N-((6-methyl-2-oxo-4-propyl-1,2-dihydropyridin-3-yl)methyl)-1H-indazole-4-carboxamide] | A (0%≤substrate protein remaining %≤80%) |  |  |  |  |  |  |
| CCN(c1cc(-c2ccc(N3CCN(C4CCN(CC5CCN(c6cccc7c6C(=O)N(N6CCC(=O)NC6=O)C7=O)CC5)CC4)CC3)cc2)cc(C(=O)NCc2c(C)cc(C)[nH]c2=O)c1C)C1CCOCC1 [GT-08525, N-((4,6-dimethyl-2-oxo-1,2-dihydropyridin-3-yl)methyl)-4′-(4-(1-((1-(2-(2,4-dioxotetrahydropyrimidin-1(2H)-yl)-1,3-dioxoisoindolin-4-yl)piperidin-4-yl)methyl)piperidin-4-yl)piperazin-1-yl)-5-(ethyl(tetrahydro-2H-pyran-4-yl)amino)-4-methyl-[1,1′-biphenyl]-3-carboxamide] | A (0%≤substrate protein remaining %≤80%) |  |  |  |  |  |  |

Second part, led by results:

| Degradation of substrate protein EZH2 (substrate protein remaining %) [2] | Degradation of substrate protein FAK (substrate protein remaining %) [5] | SMILES | inhibition at 0.01 µM [4] [%] | inhibition at 0.5 µM [4] [%] | inhibition at 0.01 µM [6] [%] | inhibition at 0.5 µM [6] [%] | other results |
| --- | --- | --- | --- | --- | --- | --- | --- |
|  | A (0%≤substrate protein remaining %≤80%) | CNC(=O)c1ccccc1Nc1cc(Nc2ccc(N3CCC(N(C)Cc4ccc5c(c4)CN(N4CCC(=O)NC4=O)C5=O)CC3)cc2OC)ncc1C(F)(F)F [GT-07647, 2-((2-((4-(4-(((2-(2,4-dioxotetrahydropyrimidin-1(2H)-yl)-1-oxoisoindolin-5-yl)methyl)(methyl)amino)piperidin-1-yl)-2-methoxyphenyl)amino)-5-(trifluoromethyl)pyridin-4-yl)amino)-N-methylbenzamide] | 40 to 50 | 70 to 80 | 40 to 50 | 80 to 100 | inhibition at 0.01 µM [3]: 20 to 30%; inhibition at 0.5 µM [3]: 40 to 60% |
| A (0%≤substrate protein remaining %≤80%) |  | CCCc1cc(C)[nH]c(=O)c1CNC(=O)c1cc(-c2ccc(N3CCC(N(C)Cc4ccc5c(c4)CN(N4CCC(=O)NC4=O)C5=O)CC3)nc2)cc2c1cnn2C(C)C [GT-08420, 6-(6-(4-(((2-(2,4-dioxotetrahydropyrimidin-1(2H)-yl)-1-oxoisoindolin-5-yl)methyl)(methyl)amino)piperidin-1-yl)pyridin-3-yl)-1-isopropyl-N-((6-methyl-2-oxo-4-propyl-1,2-dihydropyridin-3-yl)methyl)-1H-indazole-4-carboxamide] |  |  |  |  |  |
|  | A (0%≤substrate protein remaining %≤80%) | CN(c1nccnc1CNc1nc(Nc2ccc(N3CCN(CC4CCN(c5ccc6c(c5)C(=O)N(N5CCC(=O)NC5=O)C6=O)CC4)CC3)cc2)ncc1C(F)(F)F)S(C)(=O)=O [GT-07468, N-(3-(((2-((4-(4-((1-(2-(2,4-dioxotetrahydropyrimidin-1(2H)-yl)-1,3-dioxoisoindolin-5-yl)piperidin-4-yl)methyl)piperazin-1-yl)phenyl)amino)-5-(trifluoromethyl)pyrimidin-4-yl)amino)methyl)pyrazin-2-yl)-N-methylmethanesulfonamide] | 20 to 30 | 50 to 60 | 30 to 40 | 80 to 100 | inhibition at 0.01 µM [3]: 20 to 30%; inhibition at 0.5 µM [3]: 80 to 100% |
|  | A (0%≤substrate protein remaining %≤80%) | CN(c1nccnc1CNc1nc(Nc2ccc(N3CCN(CC4CCN(c5cccc6c5C(=O)N(N5CCC(=O)NC5=O)C6=O)CC4)CC3)cc2)ncc1C(F)(F)F)S(C)(=O)=O [GT-07469, N-(3-(((2-((4-(4-((1-(2-(2,4-dioxotetrahydropyrimidin-1(2H)-yl)-1,3-dioxoisoindolin-4-yl)piperidin-4-yl)methyl)piperazin-1-yl)phenyl)amino)-5-(trifluoromethyl)pyrimidin-4-yl)amino)methyl)pyrazin-2-yl)-N-methylmethanesulfonamide] | 30 to 40 | 50 to 60 | 0 to 5 | 80 to 100 |  |
